Tests used:
[1] = Nebulization of PB141: aerosol droplet size by Andersen cascade impactor; format: physicochemical; details: dissolved in water or PBS; micropump nebulizer, 10 L of air/min
Experimental: PB141 was dissolved in water or different concentrations of PBS and the solutions were aerosolized using a micropump nebulizer (Buxco Research Systems, Wilmington, N.C.) flowing at 10 L of air/min. Aerosol droplet size was measured with an Andersen cascade impactor. (A) Distribution of PB141 aerosol droplet sizes. (B) The concentration of PB141 during a 30 min nebulization period was measured by collecting samples during nebulization and analyzing by spectrophotometer in two independent experiments.
PB141 was dissolved in water or different concentrations of PBS and aerosols were generated using a micropump nebulizer (Buxco Research Systems, Wilmington, N.C.) flowing at 10 L of air/min. Aerosol droplet size was measured with an Andersen cascade impactor. The concentration of PB141 during a 30-min nebulization period was measured by collecting samples during nebulization and analyzing them by spectrophotometer in […]. […] Nebulization was optimal for a solution of PB141 in 2% saline, although a formulation in pure water was also effective.

[2] = test system: LPS-induced acute lung injury in mice; assay: LPS-induced acute lung injury model; format: in vivo; details: 25 mg/kg nebulized 30 min after LPS
Experimental: Induction of ALI by intratracheal injection of LPS (50 μg) was followed 30 min later by nebulization of PB141 (25 mg/kg) or vehicle (saline) and delivery to cage air via a micropump nebulizer. After a further 5.5 h, BAL fluid, plasma, and lung samples were obtained. (A) Total cell and (B) neutrophil number in BAL fluid; myeloperoxidase activity in (C) lung tissue and (D) BAL fluid; (E) microscopic examination following staining of BAL fluid; (F) H2O2 production; (G) nitrate concentration, and (H) malonyldialdehyde/protein ratio in lung. Plasma levels of (I) MIP-2, (J) IL-6, (K) TNF-α, and (L) KC. Data are representative of one of two independent experiments with n=5-8 mice per group; *** p<0.001.
Induction of ALI by intratracheal injection of LPS (50 μg) was followed 30 min later by nebulization of PB141 (25 mg/kg) or vehicle (saline) and delivery to cage air via a micropump nebulizer. After a further 5.5 h, BAL fluid and lung samples were obtained. (A) Protein concentration in BAL fluid. (B) Ratio of lung wet:dry weight. (C) Histological examination of the lung following H&E staining. Data are representative of one of two independent experiments with n=5-8 mice per group; *** p<0.001.
Induction of ALI by intratracheal injection of LPS (50 μg) was followed 30 min later by nebulization of PB141 (25 mg/kg) or vehicle (saline) and delivery to cage air via a micropump nebulizer. After another 5.5 h lungs were excised and DNA-binding activity of the transcription factor Nrf2 was determined. Data is representative of one of two independent experiments with n=4-6 mice per group; *** p<0.001.
Acute lung injury was induced by intratracheal injection of endotoxin (lipopolysaccharide; LPS) prepared from Escherichia coli 0111:B6 (Sigma-Aldrich; St. Louis, Mo.) into anesthetized mice. In other experiments, systemic sepsis was induced by intraperitoneal injection of endotoxin. Thirty minutes later PB141 (25 mg/kg) or vehicle (saline) was delivered to mice for 30 minutes via a micropump nebulizer (Buxco Research Systems, Wilmington, N.C.) fitted at the chamber inlet. Extent of lung injury after 5.5 h and systemic sepsis after 12 h were assessed by measuring lung tissue myeloperoxidase activity, polymorphonuclear neutrophil (PMN) count in bronchoalveolar lavage fluid, lung vascular permeability, pulmonary edema, and cytokine generation. Lung histology sections were assessed microscopically for evidence of inflammation and injury following hematoxylin and eosin (H&E) staining.

[3] = test system: cigarette smoke-induced COPD in mice; assay: Cigarette smoke-induced COPD model; format: in vivo
Experimental: COPD was induced by exposure of mice to whole-body cigarette smoke for 5 days, at the end of which the mice were euthanized and cells and levels of mediators were obtained from the pulmonary airspace by bronchoalveolar lavage. Some mice received PB141 (25 mg/kg) simultaneously with the cigarette smoke (A-I).
Mice were exposed 5 days per week for 4 wk (sub-acute exposure) to the smoke of five cigarettes (Reference Cigarette 2R4F without filter; University of Kentucky) administered four times per day with a 30-min smoke-free interval between exposures. An optimal smoke:air ratio of 1:6 was obtained. In preventive studies, tobacco smoke exposure was paralleled by delivery of a nebulized solution containing PB141 (25 mg/kg) or vehicle (saline) via a micropump nebulizer (Buxco Research Systems, Wilmington, N.C.). At the conclusion of smoke exposure the extent of lung inflammation was assessed by counting polymorphonuclear neutrophils (PMNs) in bronchoalveolar lavage fluid and measuring lung vascular permeability, edema, pulmonary lymphoid aggregation, and generation of inflammatory chemokines and cytokines. Emphysema was assessed by destruction of alveolar walls, quantitated as the destructive index (DI), and by enlargement of alveolar spaces, quantitated by the mean linear intercept (Lm). Airway remodeling was assessed by staining collagen in the airway wall and by measuring the amount of fibronectin. Lung histology sections were assessed for inflammation and injury following hematoxylin and eosin (H&E) staining. Lymphoid aggregates were quantification by morphometric analysis.

[4] = 25 mg/kg nebulized in parallel with smoke exposure

In the case of CC(=O)N[C@@H](CSC(CC(=O)CC(SC[C@H](NC(C)=O)C(=O)O)c1cnccn1)c1cnccn1)C(=O)O (stereo partly shown) [PB141], the Aerosol droplet size [1] was 1-2 μm, the “Cytokine generation (plasma MIP-2, IL-6, TNF-α, KC)” value ([2]; 5.5 h) was “reduced” and the “Edema (lung wet:dry weight)” value ([2]; 5.5 h) was “reduced”. The “Lung Nrf2 DNA-binding activity after LPS” value ([2]; 5.5 h) was “reverses the LPS-induced decrease”, the Lung myeloperoxidase activity ([2]; 5.5 h) was “decreased” and the “Oxidant stress (H2O2, nitrate, malonyldialdehyde)” value ([2]; 5.5 h) was “reduced”. For the same molecule, the “PMN count in BAL fluid” value ([2]; 5.5 h) was “decreased”, the “PMN infiltration into the alveolar space” value ([2]; 5.5 h) was “effectively prevented” and the “Lung injury seen histologically” value ([2]; H&E) was “Decreased lung injury”. For the same molecule, the Airway wall remodeling [3, 4] was “significantly decreased”, the “Cigarette smoke-induced increase of inflammatory cells in the lungs” value [3, 4] was “significantly decreased” and the “Development of pulmonary hypertension” value [3, 4] was “significantly decreased”. The Emphysema [3, 4] was “significantly decreased”, the “Generation of inflammatory chemokines and cytokines” value [3, 4] was “significantly decreased” and the Pulmonary lymphoid aggregates [3, 4] was “significantly decreased”. The “Phagocytic ability of alveolar macrophages” value ([3]; administration by nebulization) was “improved”.

From US9862690B2, “Treatment of pulmonary and other conditions” (University of Pittsburgh—of the Commonwealth System of …, priority 2013, dated 2018)
